According to patent publication US20250161309A1, “TOPICAL COMPOSITIONS AND USES THEROF” (TOPADUR PHARMA AG, priority 2022, published 2025):

Legend:
[1] = test system: C57BL/6 mouse model for chemotherapy-induced alopecia (CIA); assay: Preventive C57BL/6 mouse model of cyclophosphamide (chemotherapy)-induced alopecia (CIA), topical administration; assay type: in vivo; details: female mice; for mice with visual melanogenesis in peeled skin: end of study; for Ki-67 mean score (positive cells near the root sheath of hair follicles, semi-quantitative grading): vehicle 0.4; for CD-31 mean score (perifollicular angiogenesis, semi-quantitative grading): vehicle group 0.8
Method: Female C57BL/6 mice (Vivo Bio Tech Ltd, Telangana, India) of 6 to 9 weeks of age in stable telogen phase of hair growth cycle were used.
100 μL of a clear solution of respective 0.0004%, 0.002% (w/v) concentrations of Cpd 1 in the corresponding vehicle (PEG-400:EtOH/7:3) (PEG-400: Central Drug House Ltd. Dehli, India; Ethanol: Changshu Hongsheng fine chemicals Co. Ltd. China) and the positive control, 2% solution (w/v) Minoxidil (Chemieliva, China) in the corresponding vehicle (PEG-400:EtOH/7:3) were topically applied to the depilated area on the dorsal back of female mice. The solutions covered a circular area of approximately 4 cm^2. The treatment regimen was twice daily for 7 days before Cyclophosphamide injection and afterwards for 3 weeks.
Animals (female) on day 1 weighted on average 18.8 g+0.2 ranging from 18.5 to 19.3 g. The animals were exposed by gentle clipping of hair from the dorsal back using an electric clipper. The following day, animals with clear skin were depilated using a depilatory cream. To evaluate the preventive potential of Cpd 1 in the chemotherapy-induced alopecia mouse model, animals were treated topically with 0.0004% and 0.002% Cpd 1, 2% Minoxidil and vehicle from day 1 onwards on the dorsal depilated skin with twice daily application regimen until day 10, when all the animals have attained the anagen stage. On day 11 after depilation, no application of the Cpd 1 or vehicle was done. This was considered a wash-out period. On day 12 after depilation, the animals were given intraperitoneal injection of cyclophosphamide (CYP-HiMedia Laboratories, Mumbai, India) at the dose of 150 mg/kg body weight. One day of wash-out period was given to the animals before restarting the treatment with Cpd 1. The treatment regimen was reinitiated with 0.0004% and 0.002% Cpd 1, 2% Minoxidil and vehicle in the respective groups for further 3 weeks. All the animals were observed from day 1 (experiment start) till day 30 (experiment termination and animal sacrifice day) and the hair growth score was recorded on a daily basis. The criteria for scoring of hair growth is as follows: no hair growth, pink skin—score 0; skin colour changes from pink to grey/light grey without visible hair growth—score 0.5; onset of anagen (skin colour changes from grey/light grey to dark grey/black without visible hair growth)—score 1; sparse hair growth—score 1.5; diffuse short hair growth—score 2, moderate hair growth—score 2.5 and dense, normal coat hair—score 3 (Lee B H, Lee J S, Kim Y C. Hair growth-promoting effects of lavender oil in C57BL/6 mice. Toxicol Res. (2016) 32(2):103-108). Photographs of the animals were captured before the initiation and during the course of the study. […]
After completion of the experiments all animals were sacrificed by euthanasia (Choi H I, Kang B M, Jang J, Hwang S T, Kwon O. Novel effect of sildenafil on hair growth. Biochem Biophys Res Commun. (2018) 505(3):685-691). The dorsal skin of each animal was then removed by peeling. The peeled skin was spread and checked visually for the induction of melanogenesis indicated by visual blackening on the reverse side of the skin. The skin samples were evenly spread on a pre-labelled glass slide and kept in 10% formalin until further use. Later, the skin samples were embedded in paraffin and sectioned at 5 microns using a microtome and the corresponding slides per animal were prepared. The slides obtained were used for Haematoxylin & Eosin (H&E) staining and in the transverse and longitudinal sections' photomicrographs data, the total number of follicles in the dermis and the sub cutis were determined for each animal. The skin thickness was measured using Image J 1.44 software. […]

[2] = test system: battery of 44 targets (SafetyScreen44); assay: Off-target selectivity, (radio)ligand binding and enzymatic assays, SafetyScreen44 (Eurofins Cerep); set-up: species or system human; details: 100 nM; all 44 targets of Table 4 (incl. hERG, PDE3A, PDE4D2, COX1, COX2); no significant responses
Method: In vitro pharmacological profiling is increasingly being used earlier in the drug discovery process to identify undesirable off-target activity profiles that could hinder or halt the development of candidate drugs or even lead to market withdrawal if discovered after a drug is approved (Bowes N, et. al., Nature Reviews Drug Discovery 11(12):909-22). Thus, the Off-target selectivity of Compound 1 at 100 nM was tested in (radio)ligand binding and enzymatic assays against a battery of 44 targets (SafetyScreen44™, atEurofins Cerep, France).

Compound: CCCOc1ccc(S(=O)(=O)N2CCC(CCO[N+](=O)[O-])(CCO[N+](=O)[O-])CC2)cc1-c1nc2c(CCC)cn(CC)c2c(=O)[nH]1 [Cpd 1, (1-((3-(5-ethyl-4-oxo-7-propyl-4,5-dihydro-3H-pyrrolo[3,2-d]pyrimidin-2-yl)-4-propoxyphenyl)sulfonyl)piperidine-4,4-diyl)bis(ethane-2,1-diyl) dinitrate]
- number of hair follicles, Cpd 1 compared with 2% Minoxidil-treated groups [1]: No significant differences
- signs of alopecia after CYP administration on day 12 ([1]; 0.0004% (w/v)): minor signs of alopecia
- mice with visual melanogenesis in peeled skin ([1]; 0.0004% (w/v)): 6/7
- Ki-67 mean score (positive cells near the root sheath of hair follicles, semi-quantitative grading) ([1]; 0.0004% (w/v)): 1.4
- CD-31 mean score (perifollicular angiogenesis, semi-quantitative grading) ([1]; 0.0004% (w/v)): 1.4
- depth and development of dermal papilla and long hair shaft of hair follicles observed (longitudinal skin sections) ([1]; 0.0004% and 0.002%): majority of the animals
- thickness of the skin compared to vehicle group ([1]; 0.0004% and 0.002%): slightly increase
- skin color change (transition from telogen to anagen phase) compared to Minoxidil-treated group ([1]; 0.0004% and 0.002%, before CYP administration, majority of animals, end of first week of application): faster
- increase in hair growth, 0.002% compared to 0.0004% ([1]; 0.002% (w/v)): slightly faster increase
- signs of alopecia after CYP administration on day 12 ([1]; 0.002% (w/v)): no signs of alopecia
- mice with visual melanogenesis in peeled skin ([1]; 0.002% (w/v)): 7/7
- Ki-67 mean score (positive cells near the root sheath of hair follicles, semi-quantitative grading) ([1]; 0.002% (w/v)): 1.7
- CD-31 mean score (perifollicular angiogenesis, semi-quantitative grading) ([1]; 0.002% (w/v)): 1.6
- adverse effects on body weight ([1]; 30-day study, any of the groups): no adverse effects
- behavioral changes, reaction to treatment or adverse effects in relation to general health ([1]; 30-day study, topical twice daily): no signs of behavioral changes, reaction to treatment or adverse effects
- decrease in the mean hair growth after CYP administration ([1]; Compound 1 treated groups): no decrease
- number of hair follicles in the subcutis layer of the skin and total follicle counts compared to vehicle group (H&E) ([1]; Compound 1 treated groups): significantly increased
- animals with complete hair regrowth (hair growth score of 3) ([1]; Cpd 1 groups (0.0004% and 0.002%)): 7/7
- increase in hair growth compared to Minoxidil and vehicle group ([1]; from day 6/7 onwards): faster increase
- inhibition or stimulation to any of the targets [2]: < 50%
